Several values for one entry are separate records, joined by “and”; a condition that tells them apart may be missing. Identical values can stand only once. Inconclusive results and toxic doses are left out. No stated cut-off is given here; in the data, active means T/C of 150% or more; inactive means T/C below 125%.
System: L1210 leukemia ip in BDF1 mice, survival T/C
Test: NCI In Vivo Anticancer Drug Screen. Data for tumor model L1210 Leukemia (intraperitoneal) in B6D2F1 (BDF1) mice
Conditions: endpoint: mean survival time, higher = longer survival
Experimental: The antitumor activity of compounds was measured in mice bearing transplantable tumors. Survival or tumor size were measured and the results are expressed as the measurement made in the treated group (T) divided by the measurement made in the vehicle treated control group (C). The tumor model used in this assay is L1210 Leukemia (intraperitoneal) in B6D2F1 (BDF1) mice

Measured: T/C

CCCC(=O)Nc1cc(OC)ccc1OC
inactive: dose: 100.0 mg/kg/injection, schedule: Q01DX009 (ip), vehicle: Klucel (hydroxypropylcellulose) (HPC) 106 % of control | dose: 200.0 mg/kg/injection, schedule: Q01DX009 (ip), vehicle: Klucel (hydroxypropylcellulose) (HPC) 97 % of control

COc1cc(C=Nc2ccc3ccccc3c2)ccc1N(CCCl)CCCl
active: dose: 40.0 mg/kg/injection, schedule: Q01DX001 (ip), vehicle: carboxymethylcellulose (CMC) 151 % of control
inactive: dose: 0.9 mg/kg/injection, schedule: Q01DX009 (ip), vehicle: carboxymethylcellulose (CMC) 102 % of control | dose: 1.3 mg/kg/injection, schedule: Q01DX009 (ip), vehicle: carboxymethylcellulose (CMC) 118 % of control | dose: 1.5 mg/kg/injection, schedule: Q01DX009 (ip), vehicle: carboxymethylcellulose (CMC) 108 % of control | dose: 3.0 mg/kg/injection, schedule: Q01DX009 (ip), vehicle: carboxymethylcellulose (CMC) 114 % of control and 117 % of control | dose: 6.0 mg/kg/injection, schedule: Q01DX009 (ip), vehicle: carboxymethylcellulose (CMC) 122 % of control | dose: 20.0 mg/kg/injection, schedule: Q01DX009 (ip), vehicle: carboxymethylcellulose (CMC) 119 % of control | dose: 30.0 mg/kg/injection, schedule: Q01DX009 (ip), vehicle: carboxymethylcellulose (CMC) 100 % of control | dose: 75.0 mg/kg/injection, schedule: Q01DX001 (ip), vehicle: carboxymethylcellulose (CMC) 119 % of control

CCCCOC(c1ccccc1)N1CCCCC1 (centres undefined)
inactive: dose: 200.0 mg/kg/injection, schedule: Q01DX001 (ip), vehicle: carboxymethylcellulose (CMC) 95 % of control

CCSC(=O)CC
inactive: dose: 100.0 mg/kg/injection, schedule: Q04DX003 (ip), vehicle: saline with Tween-80 104 % of control | dose: 200.0 mg/kg/injection, schedule: Q04DX003 (ip), vehicle: saline with Tween-80 100 % of control | dose: 400.0 mg/kg/injection, schedule: Q04DX003 (ip), vehicle: saline with Tween-80 95 % of control

O=C(O)c1ccc(-c2c3ccc(=O)cc-3oc3cc(O)ccc23)c(C(=O)O)c1
inactive: dose: 100.0 mg/kg/injection, schedule: Q04DX003 (ip), vehicle: saline 97 % of control | dose: 200.0 mg/kg/injection, schedule: Q04DX003 (ip), vehicle: saline 105 % of control | dose: 400.0 mg/kg/injection, schedule: Q04DX003 (ip), vehicle: saline 97 % of control

O=c1c2c(O)cccc2oc2cccc(O)c12
inactive: dose: 100.0 mg/kg/injection, schedule: Q01DX009 (ip), vehicle: saline with Tween-80 95 % of control | dose: 200.0 mg/kg/injection, schedule: Q01DX009 (ip), vehicle: saline with Tween-80 91 % of control | dose: 400.0 mg/kg/injection, schedule: Q01DX009 (ip), vehicle: saline with Tween-80 96 % of control

CCC1([N+](=O)[O-])COP(=O)(OC(=O)c2ccco2)OC1 (centres undefined)
inactive: dose: 100.0 mg/kg/injection, schedule: Q01DX001 (ip), vehicle: saline 97 % of control | dose: 200.0 mg/kg/injection, schedule: Q01DX001 (ip), vehicle: saline 96 % of control | dose: 400.0 mg/kg/injection, schedule: Q01DX001 (ip), vehicle: saline 96 % of control

Source: PubChem BioAssay AID248 (DTP/NCI, 2004)
